Laboratory results published in ChEMBL document CHEMBL1909046, “DrugMatrix in vitro pharmacology data”.

Experiments:
Melanocortin receptor 3 = Melanocortin receptor 3 (Homo sapiens, UniProt P41968); format: cell membranes, Membrane; settings: hek293; also: in other assays of this panel Not Active means under 50% inhibition at 10 µM
[1] = target: Tyrosine-protein kinase Fyn (Homo sapiens, UniProt P06241); assay: biochemical; format: cell-based, Insect cells;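 also: enzymatic inhibition of Fyn kinase activity measured with Poly(Glu:Tyr) as the phosphorylation substrate; in other assays of this panel Not Active means under 50% inhibition at 10 µM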
Adenosine receptor A2a = Adenosine receptor A2a (Homo sapiens, UniProt P29274); assay: DRUGMATRIX: Adenosine A2A radioligand binding (ligand: […]); format: cell membranes, HEK293, Membrane; settings: hek293; Not Active = under 50% inhibition at 10 µM
Cytochrome P450 2C19 = Cytochrome P450 2C19 (Homo sapiens, UniProt P33261); also: in other assays of this panel Not Active means under 50% inhibition at 10 µM
Glucocorticoid receptor [2] = target: T1, Glucocorticoid receptor (Homo sapiens, UniProt P04150); settings: hela s3; also: in other assays of this panel Not Active means under 50% inhibition at 10 µM
T1 sequence (P04150 whole entry): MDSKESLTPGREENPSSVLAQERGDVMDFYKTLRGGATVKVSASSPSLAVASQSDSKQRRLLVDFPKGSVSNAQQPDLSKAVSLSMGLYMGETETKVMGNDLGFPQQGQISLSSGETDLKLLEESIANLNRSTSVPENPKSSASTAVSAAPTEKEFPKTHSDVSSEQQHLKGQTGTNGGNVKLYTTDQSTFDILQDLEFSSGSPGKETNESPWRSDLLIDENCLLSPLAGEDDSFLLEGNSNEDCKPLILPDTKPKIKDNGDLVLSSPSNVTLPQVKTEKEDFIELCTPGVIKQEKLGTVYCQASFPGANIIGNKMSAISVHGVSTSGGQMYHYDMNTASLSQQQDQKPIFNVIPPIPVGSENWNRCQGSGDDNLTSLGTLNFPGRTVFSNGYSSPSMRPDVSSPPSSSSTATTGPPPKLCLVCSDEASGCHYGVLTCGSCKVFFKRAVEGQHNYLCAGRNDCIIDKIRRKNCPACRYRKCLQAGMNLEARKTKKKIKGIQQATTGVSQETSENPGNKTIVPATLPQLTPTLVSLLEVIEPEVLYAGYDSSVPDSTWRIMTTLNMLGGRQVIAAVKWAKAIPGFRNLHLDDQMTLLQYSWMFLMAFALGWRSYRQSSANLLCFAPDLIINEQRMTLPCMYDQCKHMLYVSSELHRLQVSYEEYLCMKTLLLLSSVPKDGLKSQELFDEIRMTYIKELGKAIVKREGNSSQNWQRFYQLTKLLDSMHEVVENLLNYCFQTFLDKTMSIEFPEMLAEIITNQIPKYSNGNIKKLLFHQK

Estrogen receptor = target: T2, Estrogen receptor (Homo sapiens, UniProt P03372); assay: biochemical; also: in other assays of this panel Not Active means under 50% inhibition at 10 µM
T2 sequence (P03372 whole entry): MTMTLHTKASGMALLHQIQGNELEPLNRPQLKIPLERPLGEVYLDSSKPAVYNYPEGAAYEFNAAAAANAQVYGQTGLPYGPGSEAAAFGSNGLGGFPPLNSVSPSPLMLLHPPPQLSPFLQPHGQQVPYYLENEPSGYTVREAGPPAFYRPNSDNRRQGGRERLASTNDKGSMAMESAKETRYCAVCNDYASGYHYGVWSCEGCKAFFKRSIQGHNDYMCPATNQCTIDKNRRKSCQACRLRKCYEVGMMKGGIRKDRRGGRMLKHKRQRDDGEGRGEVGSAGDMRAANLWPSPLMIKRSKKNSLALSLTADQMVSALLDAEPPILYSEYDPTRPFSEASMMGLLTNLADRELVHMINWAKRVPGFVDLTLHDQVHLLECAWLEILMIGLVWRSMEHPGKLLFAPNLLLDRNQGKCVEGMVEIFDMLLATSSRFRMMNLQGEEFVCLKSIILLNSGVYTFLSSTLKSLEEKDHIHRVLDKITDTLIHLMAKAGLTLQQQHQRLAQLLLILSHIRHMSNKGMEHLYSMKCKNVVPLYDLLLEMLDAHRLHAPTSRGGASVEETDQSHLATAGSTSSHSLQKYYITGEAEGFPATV

Androgen receptor = target: T3, Androgen receptor (Rattus norvegicus, UniProt P15207); also: in other assays of this panel Not Active means under 50% inhibition at 10 µM
T3 sequence (P15207 whole entry): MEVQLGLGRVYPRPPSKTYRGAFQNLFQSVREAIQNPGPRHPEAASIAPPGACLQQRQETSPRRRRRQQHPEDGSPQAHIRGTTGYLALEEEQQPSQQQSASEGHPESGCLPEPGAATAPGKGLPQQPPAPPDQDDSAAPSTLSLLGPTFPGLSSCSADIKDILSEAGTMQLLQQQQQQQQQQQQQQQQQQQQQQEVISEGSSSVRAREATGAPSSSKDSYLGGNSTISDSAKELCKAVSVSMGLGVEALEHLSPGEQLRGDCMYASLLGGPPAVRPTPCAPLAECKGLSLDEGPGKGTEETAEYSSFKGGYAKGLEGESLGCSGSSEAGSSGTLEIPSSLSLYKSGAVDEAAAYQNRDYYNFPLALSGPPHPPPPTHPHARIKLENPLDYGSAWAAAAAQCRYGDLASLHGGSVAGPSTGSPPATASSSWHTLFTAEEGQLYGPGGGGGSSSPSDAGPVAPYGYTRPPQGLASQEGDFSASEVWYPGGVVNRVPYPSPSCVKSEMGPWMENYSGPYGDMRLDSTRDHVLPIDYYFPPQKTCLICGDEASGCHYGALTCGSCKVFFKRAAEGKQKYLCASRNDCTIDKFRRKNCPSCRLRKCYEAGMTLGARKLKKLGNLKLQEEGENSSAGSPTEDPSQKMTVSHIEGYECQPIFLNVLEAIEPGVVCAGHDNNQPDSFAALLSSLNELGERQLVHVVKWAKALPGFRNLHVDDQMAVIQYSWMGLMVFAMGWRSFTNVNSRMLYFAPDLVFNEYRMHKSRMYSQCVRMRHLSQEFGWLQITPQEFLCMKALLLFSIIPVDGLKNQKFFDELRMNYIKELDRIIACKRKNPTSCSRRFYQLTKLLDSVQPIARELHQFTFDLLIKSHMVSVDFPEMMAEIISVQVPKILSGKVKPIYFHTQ

Glucocorticoid receptor [3] = target: T1, Glucocorticoid receptor; assay: biochemical

Chain of Melanocortin receptor 3 (P41968 whole entry): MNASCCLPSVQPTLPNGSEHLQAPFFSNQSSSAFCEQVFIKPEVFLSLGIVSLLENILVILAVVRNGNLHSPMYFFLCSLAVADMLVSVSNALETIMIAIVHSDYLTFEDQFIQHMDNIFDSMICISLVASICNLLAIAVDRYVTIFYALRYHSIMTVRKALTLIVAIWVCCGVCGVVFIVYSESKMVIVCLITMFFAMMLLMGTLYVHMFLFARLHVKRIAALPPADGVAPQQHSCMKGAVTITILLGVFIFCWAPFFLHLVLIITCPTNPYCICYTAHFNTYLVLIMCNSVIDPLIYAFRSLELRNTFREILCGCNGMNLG
Chain of Tyrosine-protein kinase Fyn (P06241 whole entry): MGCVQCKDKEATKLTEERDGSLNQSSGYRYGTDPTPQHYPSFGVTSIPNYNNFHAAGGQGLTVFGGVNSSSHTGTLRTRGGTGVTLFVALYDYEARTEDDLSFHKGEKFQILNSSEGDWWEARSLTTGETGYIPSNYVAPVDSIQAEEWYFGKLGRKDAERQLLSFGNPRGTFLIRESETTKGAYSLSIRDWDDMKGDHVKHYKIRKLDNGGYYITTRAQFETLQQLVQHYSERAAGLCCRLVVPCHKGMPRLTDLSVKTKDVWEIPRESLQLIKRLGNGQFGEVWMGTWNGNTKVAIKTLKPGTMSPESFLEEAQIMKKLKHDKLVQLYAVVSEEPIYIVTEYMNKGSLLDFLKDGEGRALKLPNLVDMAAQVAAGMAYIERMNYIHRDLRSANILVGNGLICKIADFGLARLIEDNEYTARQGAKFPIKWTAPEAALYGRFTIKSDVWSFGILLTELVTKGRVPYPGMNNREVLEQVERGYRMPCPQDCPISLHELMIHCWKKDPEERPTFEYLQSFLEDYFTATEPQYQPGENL
Chain of Cytochrome P450 2C19 (P33261 whole entry): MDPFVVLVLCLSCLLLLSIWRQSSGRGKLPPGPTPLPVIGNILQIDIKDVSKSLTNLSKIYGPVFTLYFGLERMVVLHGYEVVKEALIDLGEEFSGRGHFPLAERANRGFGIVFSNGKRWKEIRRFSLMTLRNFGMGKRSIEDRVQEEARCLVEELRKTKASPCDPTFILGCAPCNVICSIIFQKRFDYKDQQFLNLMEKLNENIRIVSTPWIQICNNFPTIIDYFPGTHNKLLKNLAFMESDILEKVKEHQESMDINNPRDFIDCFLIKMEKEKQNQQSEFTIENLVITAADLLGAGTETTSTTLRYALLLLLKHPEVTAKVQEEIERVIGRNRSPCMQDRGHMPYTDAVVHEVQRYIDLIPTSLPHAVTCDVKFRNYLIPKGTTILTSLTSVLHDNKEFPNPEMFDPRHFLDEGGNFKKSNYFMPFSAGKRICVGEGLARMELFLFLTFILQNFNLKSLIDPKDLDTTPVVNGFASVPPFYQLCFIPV
Chain of Adenosine receptor A2a (P29274 whole entry): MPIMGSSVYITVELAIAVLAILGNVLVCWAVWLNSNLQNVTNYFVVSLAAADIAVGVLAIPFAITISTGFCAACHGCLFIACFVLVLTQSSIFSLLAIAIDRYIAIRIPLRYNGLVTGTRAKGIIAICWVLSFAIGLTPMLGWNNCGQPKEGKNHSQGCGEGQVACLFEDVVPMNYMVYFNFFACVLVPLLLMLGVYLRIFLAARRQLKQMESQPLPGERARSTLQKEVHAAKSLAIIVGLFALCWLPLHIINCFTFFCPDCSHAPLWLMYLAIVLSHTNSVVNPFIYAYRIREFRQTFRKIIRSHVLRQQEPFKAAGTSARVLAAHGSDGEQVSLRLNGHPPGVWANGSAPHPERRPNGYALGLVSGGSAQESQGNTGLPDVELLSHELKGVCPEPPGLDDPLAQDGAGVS

Compound	IC50 (Melanocortin receptor 3)	IC50 ([1]; insect cells)	IC50 (Adenosine receptor A2a)	IC50 (Cytochrome P450 2C19) [µM]	IC50 (Glucocorticoid receptor [2])	IC50 (Estrogen receptor) [µM]	Ki (Estrogen receptor) [µM]	IC50 (Androgen receptor)	IC50 ([1]; read-out: IC50) [µM]	IC50 (Glucocorticoid receptor [3]) [µM]	Ki (Glucocorticoid receptor [3]) [µM]
CC[C@]1(O)CC[C@H]2[C@@H]3CCC4=CCCC[C@@H]4[C@H]3CC[C@@]21C	Not Active	Not Active	Not Active	1.29	Not Active	1.12	0.32	–	–	–	–
O=C(c1ccccc1Cl)N1CCC(Cc2ccccc2)CC1	Not Active	Not Active	Not Active	0.2	Not Active	–	–	Not Active	–	–	–
O=C(/C=C/c1ccc(O)c(O)c1)OCCc1ccccc1 [CAFFEIC ACID PHENETHYL ESTER]	Not Active	–	Not Active	–	Not Active	7.91	2.26	Not Active	4.21	–	–
C#C[C@]1(O)CC[C@H]2[C@@H]3CCC4=Cc5oncc5C[C@]4(C)[C@H]3CC[C@@]21C [DANAZOL]	Not Active	Not Active	Not Active	–	–	17.8	5.08	–	–	4.31	1.96
COc1ccc(Cc2nccc3cc(OC)c(OC)cc23)cc1OC [PAPAVERINE]	Not Active	Not Active	Not Active	0.762	–	–	–	Not Active	–	–	–
